Results reported in article PMC8286840, “Identifying SARS-CoV-2 antiviral compounds by screening for small molecule inhibitors of Nsp3 papain-like protease” (Biochemical Journal, 2021).
Counter-ions that a name gives are not always drawn. Like-named read-outs stand apart in the source and are kept apart here.

What was measured:
[1] = target: T1, SARS-CoV-2 PLpro (nsp3 1564–1878) (Severe acute respiratory syndrome coronavirus 2, UniProt P0DTD1); assay: biochemical; parameters: FRET-quenched peptide (Pro3) cleavage by PLpro, 10 min pre-incubation, slope over 20 min, normalised to no-compound control; details: read-out: % of control remaining
[2] = target: T1, SARS-CoV-2 PLpro (nsp3 1564–1878); assay: biochemical; parameters: FRET-quenched peptide (Pro3) cleavage by PLpro, 10 min pre-incubation, slope over 20 min, normalised to no-compound control; details: read-out: % of control remaining; remark: listed apart in the source

## CC(C)NCC(O)COc1ccc(CC(N)=O)cc1 (stereo not drawn) [Atenolol]
[1]; Well no.=2131, low concentration screen
  remaining activity at 1.25 µM: 103%
[1]; Well no.=7671, low concentration screen
  remaining activity at 1.25 µM: 97.3%
[2]; Well no.=2131, high concentration screen
  remaining activity at 3.75 µM: 104%
[2]; Well no.=7671, high concentration screen
  remaining activity at 3.75 µM: 98.5%

## O=C(N[C@H]1CCN(C(=O)c2cc(C(F)(F)F)cc(C(F)(F)F)c2)[C@H](Cc2ccc(Cl)cc2)C1)c1ccnc2ccccc12 [NKP608]
[1]; Well no.=8427, low concentration screen
  remaining activity at 1.25 µM: 93.4%
[2]; Well no.=8427, high concentration screen
  remaining activity at 3.75 µM: 92.6%

## C[C@H]1O[C@@H](n2cc(F)c(=O)[nH]c2=O)[C@H](O)[C@@H]1O [Doxifluridine]
[1]; Well no.=1990, low concentration screen
  remaining activity at 1.25 µM: 101%
[1]; Well no.=8843, low concentration screen
  remaining activity at 1.25 µM: 96.7%
[2]; Well no.=1990, high concentration screen
  remaining activity at 3.75 µM: 103%
[2]; Well no.=8843, high concentration screen
  remaining activity at 3.75 µM: 89.3%

## NCCNC(=O)c1ncsc1-c1cccc(F)c1 [Ro 41-1049 hydrochloride]
[1]; Well no.=1496, low concentration screen
  remaining activity at 1.25 µM: 95.5%
[2]; Well no.=1496, high concentration screen
  remaining activity at 3.75 µM: 94.1%

## CS(=O)(=O)CCNCc1ccc(-c2ccc3ncnc(Nc4ccc(OCc5cccc(F)c5)c(Cl)c4)c3c2)o1 [Lapatinib ditosylate]
[1]; Well no.=1714, low concentration screen
  remaining activity at 1.25 µM: 105%
[2]; Well no.=1714, high concentration screen
  remaining activity at 3.75 µM: 105%

## Cn1c(SCC(=O)N2CCC[C@H]2C(=O)Nc2ccccc2-c2ccccc2)nc2ccccc21 [TCS 1102]
[1]; Well no.=8429, low concentration screen
  remaining activity at 1.25 µM: 98.6%
[2]; Well no.=8429, high concentration screen
  remaining activity at 3.75 µM: 98.6%

## C#C[C@]1(O)CC[C@H]2[C@@H]3[C@H](C)CC4=C(CCC(=O)C4)[C@H]3CC[C@@]21C [Tibolone]
[1]; Well no.=1954, low concentration screen
  remaining activity at 1.25 µM: 97.8%
[2]; Well no.=1954, high concentration screen
  remaining activity at 3.75 µM: 98.3%

## Oc1ccc2c3c1O[C@H]1[C@@H](O)CC[C@@]4(O)[C@@H](C2)N(CC2CCC2)CC[C@]314 [Nalbuphine]
[1]
  remaining activity at 1.25 µM: 95.6%
[2]
  remaining activity at 3.75 µM: 97.3%

## CC(C)(C)NCC(O)c1cc(O)cc(O)c1 (stereo not drawn) [Terbutaline (sulfate)]
[1]; Well no.=6709, low concentration screen
  remaining activity at 1.25 µM: 106%
[2]; Well no.=6709, high concentration screen
  remaining activity at 3.75 µM: 106%

## O=C(O)c1cc(=O)[nH]c(=O)[nH]1 [Orotic acid]
[1]; Well no.=6207, low concentration screen
  remaining activity at 1.25 µM: 108%
[2]; Well no.=6207, high concentration screen
  remaining activity at 3.75 µM: 99.7%

## CCCCCCCCCCCC1N[C@H](C(=O)O)CS1 (stereo partly drawn) [(4R) - 2-Undecyl-4-thiazolidinecarboxylic acid]
[1]; Well no.=5484, low concentration screen
  remaining activity at 1.25 µM: 104%
[2]; Well no.=5484, high concentration screen
  remaining activity at 3.75 µM: 106%

## Cc1c[nH]c(=O)[nH]c1=O [Thymine]
[1]; Well no.=6629, low concentration screen
  remaining activity at 1.25 µM: 103%
[2]; Well no.=6629, high concentration screen
  remaining activity at 3.75 µM: 108%

## CCCCCCCC/C=C\CCCCCCCC(=O)NCCc1ccc(O)c(O)c1 [Oleoyl dopamine]
[1]; Well no.=4539, low concentration screen
  remaining activity at 1.25 µM: 95.5%
[2]; Well no.=4539, high concentration screen
  remaining activity at 3.75 µM: 100%

## CC(C)N(CCC(=O)c1ccc2ccccc2c1)Cc1ccccc1 [ZM 39923 hydrochloride - 3-Benzylisopropylamino-1-naphthalen-2-yl-propan-1-one hydrochloride]
[1]; Well no.=2390, low concentration screen
  remaining activity at 1.25 µM: 96.3%
[2]; Well no.=2390, high concentration screen
  remaining activity at 3.75 µM: 98.1%

## C[C@@H](O[C@H]1OCCN(Cc2nn(P(=O)(O)O)c(=O)[nH]2)[C@H]1c1ccc(F)cc1)c1cc(C(F)(F)F)cc(C(F)(F)F)c1 [Fosaprepitant (dimeglumine)]
[1]; Well no.=7483, low concentration screen
  remaining activity at 1.25 µM: 104%
[2]; Well no.=7483, high concentration screen
  remaining activity at 3.75 µM: 97.1%

## CC(C)S(=O)(=O)N[C@H]1CCOC[C@@H]1c1ccc(-c2ccc(C#N)s2)cc1 [N-{(3R,4S)-3-[4-(5-cyano-2-thienyl)phenyl]tetrahydro-2H-pyran-4-yl}-2-propanesulfonamide]
[1]; Well no.=6010, low concentration screen
  remaining activity at 1.25 µM: 100%
[2]; Well no.=6010, high concentration screen
  remaining activity at 3.75 µM: 92.7%

## CC(C)c1cccc(C(C)C)c1O [Propofol]
[1]; Well no.=544, low concentration screen
  remaining activity at 1.25 µM: 104%
[1]; Well no.=1893, low concentration screen
  remaining activity at 1.25 µM: 92.7%
[2]; Well no.=544, high concentration screen
  remaining activity at 3.75 µM: 103%
[2]; Well no.=1893, high concentration screen
  remaining activity at 3.75 µM: 89.6%

## CC(=O)OCC1=C[C@H]2[C@@H]3C(C)(C)[C@]3(OC(=O)Cc3ccccc3)C[C@@H](C)[C@]2(O)[C@@H]2C=C(C)C(=O)[C@@]2(O)C1 [12-Deoxyphorbol 13-phenylacetate 20-acetate]
[1]; Well no.=3229, low concentration screen
  remaining activity at 1.25 µM: 107%
[2]; Well no.=3229, high concentration screen
  remaining activity at 3.75 µM: 105%

## C[N+](C)(C)CCOP(=O)(O)OP(=O)([O-])OC[C@H]1O[C@@H](n2ccc(N)nc2=O)[C@H](O)[C@@H]1O [Citicoline]
[1]; Well no.=8931, low concentration screen
  remaining activity at 1.25 µM: 89%
[2]; Well no.=8931, high concentration screen
  remaining activity at 3.75 µM: 88.7%

## CCCCCCCCCCCCCCCCCC(=O)NCC(COP(=O)([O-])OCC[N+](C)(C)C)OC (racemic) [rac-2-Methoxy-3-octadecanamido-1-propylphosphocholine]
[1]; Well no.=1126, low concentration screen
  remaining activity at 1.25 µM: 96.3%
[2]; Well no.=1126, high concentration screen
  remaining activity at 3.75 µM: 96.8%

## CO/N=C(\C(=O)N[C@@H]1C(=O)N2C(C(=O)O)=C(COC(C)=O)CS[C@H]12)c1csc(N)n1 [Cefotaxime sodium]
[1]; Well no.=186, low concentration screen
  remaining activity at 1.25 µM: 93.2%
[2]; Well no.=186, high concentration screen
  remaining activity at 3.75 µM: 94.1%

## CC1=C(/C=C/C(C)=C/C=C/C(C)=C/C=O)C(C)(C)CCC1 [All-trans-retinal]
[1]; Well no.=7443, low concentration screen
  remaining activity at 1.25 µM: 102%
[2]; Well no.=7443, high concentration screen
  remaining activity at 3.75 µM: 102%

## COc1cc(C(=O)OC2CC3CCC(C2)N3C)ccc1O (stereo not drawn) [Fillalbin]
[1]; Well no.=3539, low concentration screen
  remaining activity at 1.25 µM: 92.8%
[2]; Well no.=3539, high concentration screen
  remaining activity at 3.75 µM: 97.4%

## CCOC(=O)[C@H](CCc1ccccc1)N[C@@H](C)C(=O)N1CCC[C@H]1C(=O)O [Enalapril (maleate)]
[1]; Well no.=7638, low concentration screen
  remaining activity at 1.25 µM: 93.9%
[2]; Well no.=7638, high concentration screen
  remaining activity at 3.75 µM: 94.6%

## CCCCc1c(-c2ccc(OC)cc2)[nH]c2nccnc12 [Aloisine, RP106]
[1]; Well no.=2320, low concentration screen
  remaining activity at 1.25 µM: 96.9%
[2]; Well no.=2320, high concentration screen
  remaining activity at 3.75 µM: 94.7%

## Cc1c(C)c2c(c(C)c1O)CCC(C)(C(=O)O)O2 (stereo not drawn) [Trolox]
[1]; Well no.=3899, low concentration screen
  remaining activity at 1.25 µM: 101%
[2]; Well no.=3899, high concentration screen
  remaining activity at 3.75 µM: 99.4%

## C[C@@H]1CN(CC(=O)Nc2ccc3c(c2)Cc2cccc(-c4cc(=O)cc(N5CCOCC5)o4)c2S3)C[C@H](C)O1 [KU-60019]
[1]; Well no.=5299, low concentration screen
  remaining activity at 1.25 µM: 93.8%
[2]; Well no.=5299, high concentration screen
  remaining activity at 3.75 µM: 85.8%

## CN(C)c1cccc(-c2c3c(=O)n(-c4ccccc4Cl)[nH]c3cc(=O)n2C)c1 [GKT137831]
[1]; Well no.=9078, low concentration screen
  remaining activity at 1.25 µM: 96.8%
[2]; Well no.=9078, high concentration screen
  remaining activity at 3.75 µM: 89.9%

## O=c1n(CCCN2CCN(c3cccc(Cl)c3)CC2)nc2ccccn12 [Trazodone (hydrochloride)]
[1]; Well no.=7432, low concentration screen
  remaining activity at 1.25 µM: 109%
[2]; Well no.=7432, high concentration screen
  remaining activity at 3.75 µM: 111%

## C[C@H]1CN(C[C@H](Cc2ccccc2)C(=O)NCC(=O)O)CC[C@@]1(C)c1cccc(O)c1 [Alvimopan]
[1]; Well no.=6051, low concentration screen
  remaining activity at 1.25 µM: 95.7%
[2]; Well no.=6051, high concentration screen
  remaining activity at 3.75 µM: 96.9%

## O=C(Nc1c(Cl)cncc1Cl)c1ccc(OC(F)F)c(OCC2CC2)c1 [Roflumilast]
[1]; Well no.=5877, low concentration screen
  remaining activity at 1.25 µM: 94.1%
[2]; Well no.=5877, high concentration screen
  remaining activity at 3.75 µM: 94.8%

## O=C(Nc1cc(C(F)(F)F)cc(C(F)(F)F)c1)c1cc(Cl)ccc1O [IKK-2 Inhibitor V]
[1]; Well no.=2435, low concentration screen
  remaining activity at 1.25 µM: 99.8%
[2]; Well no.=2435, high concentration screen
  remaining activity at 3.75 µM: 102%

## CC1=C2C(=CO[C@H](C)[C@H]2C)C(O)=C(C(=O)O)C1=O [Citrinin]
[1]; Well no.=3171, low concentration screen
  remaining activity at 1.25 µM: 101%
[2]; Well no.=3171, high concentration screen
  remaining activity at 3.75 µM: 107%
